Eight compounds from patent publication US7462600B2, “Macrolides” (Pfizer Inc, priority 2004, dated 2008) can be followed below.

Converted amounts (≈) assume the structure as drawn. Where two headings read alike, the source gives them in different places.

Format in all cases: cell-based
Assay [1] relates to Haemophilus influenzae 1218. The assay can be described thus: MIC, microtiter broth dilution (NCCLS M100-S14), H. influenzae 1218 (susceptible). The gist of the method: (§1)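 Microtiter broth dilution; interpretation per NCCLS M100-S14; endpoint = MIC. Stock: 40 mg/ml in DMSO.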
In general terms: Dilution methods test growth across graded concentrations, often in twofold steps.

In assay [2] the test system is Streptococcus pneumoniae 1175. Conditions: microtiter broth dilution. The gist of the method: as §1
For assay [3], the system named is Streptococcus pneumoniae 1095. Particulars: microtiter broth dilution. The gist of the method:
as §1

For assay [4], the system named is Streptococcus pneumoniae 1016. Kind of assay: MIC, microtiter broth dilution (NCCLS M100-S14), S. pneumoniae 1016 (susceptible). The gist of the method: as §1
Assay [5] relates to Streptococcus pyogenes 1079. The assay can be described thus: MIC, microtiter broth dilution (NCCLS M100-S14), S. pyogenes 1079 (ermB). The gist of the method:
as §1

The mark [6] stands for this setting: H. influenzae 1218 (susceptible).
The mark [7] stands for this setting: S. pneumoniae 1016 (susceptible).

Consider `CCC1OC(=O)C(C)C(=O)C(C)C(OC2OC(C)CC(N(C)C)C2O)C(C)(OC)CC(C)C(=O)C(C)C2N(C3CN(Cc4ccc(Cl)cc4Cl)C3)C(=O)OC12C` (stereo not shown) [Example 1.103, 3-descladinosyl-11,12-dideoxy-6-O-methyl-3-oxo-12,11-(oxycarbonyl-(1-(2,4-dichlorobenzene-1-methyl)-azetidin-3-yl)-imino)-erythromycin A], for which, in assay [1] (Haemophilus influenzae 1218), the “MIC H. influenzae 1218” value came out at 0.25 µg/mL (≈ 0.302 µM). In addition, the “MIC S. pneumo. 1175” value in assay [2] (Streptococcus pneumoniae 1175) came out at 0.125 µg/mL (≈ 0.151 µM). Also, the “MIC S. pneumo. 1095” value in assay [3] (Streptococcus pneumoniae 1095) is less than 0.063 µg/mL. In addition, the “MIC S. pneumo. 1016” value in assay [4] (Streptococcus pneumoniae 1016) was less than 0.063 µg/mL. In addition, the “MIC S. pyogenes 1079” value in assay [5] (Streptococcus pyogenes 1079) turned out to be 16 µg/mL (≈ 19.4 µM).

As for `CCC1OC(=O)C(C)C(=O)C(C)C(OC2OC(C)CC(N(C)C)C2O)C(C)(OC)CC(C)C(=O)C(C)C2N(C3CN(S(=O)(=O)c4ccc(-c5nnc(C)o5)cc4)C3)C(=O)OC12C` (stereo not shown) [Example 3.61, 3-descladinosyl-11,12-dideoxy-4-O-methyl-3-oxo-12,11-(oxycarbonyl-(1-(4-(5-methyl-1,3,4-oxadiazol-2-yl)benzenesulfonyl)-azetidin-3-yl)-imino)-erythromycin A], in assay [1] (Haemophilus influenzae 1218), the “MIC H. influenzae 1218” value was found to be 2 µg/mL (≈ 2.25 µM). Also, the “MIC S. pneumo. 1175” value in assay [2] (Streptococcus pneumoniae 1175) is 0.12 µg/mL (≈ 0.135 µM). Further, the “MIC S. pneumo. 1095” value in assay [3] (Streptococcus pneumoniae 1095) is 2 µg/mL (≈ 2.25 µM). Besides, in assay [4] (Streptococcus pneumoniae 1016), the “MIC S. pneumo. 1016” value was less than 0.06 µg/mL. In addition, the “MIC S. pyogenes 1079” value in assay [5] (Streptococcus pyogenes 1079) stood at 2 µg/mL (≈ 2.25 µM).

Take `CCC1OC(=O)C(C)C(=O)C(C)C(OC2OC(C)CC(N(C)C)C2O)C(C)(OC)CC(C)C(=O)C(C)C2N(CC3CCCN3C(=O)c3cc4ccccc4cn3)C(=O)OC12C.O=CO` (stereo not shown) [10.09]: the “MIC H. influenzae 1218” value in assay [1] (setting [6]) came out at 2 µg/mL. Also, in assay [2] (S. pneumoniae 1175 (mefA)), the “MIC S. pneumo. 1175” value came out at 1 µg/mL. Moreover, the “MIC S. pneumo. 1095” value in assay [3] (S. pneumoniae 1095 (ermB)) was less than 0.06 µg/mL. Further, the “MIC S. pneumo. 1016” value in assay [4] (setting [7]) was less than 0.06 µg/mL. In assay [5] (S. pyogenes 1079 (ermB)), the “MIC S. pyogenes 1079” value is more than 64.00 µg/mL.

Take `CCC1OC(=O)C(C)C(=O)C(C)C(OC2OC(C)CC(N(C)C)C2O)C(C)(OC)CC(C)C(=O)C(C)C2N(C3CN(Cc4ccc5nccnc5c4)C3)C(=O)OC12C` (stereo not shown) [Example 1.28, 3-descladinosyl-11,12-dideoxy-6-O-methyl-3-oxo-12,11-(oxycarbonyl-(1-((quinoxalin-6-yl)-methyl)-azetidin-3-yl)-imino)-erythromycin A]: the “MIC H. influenzae 1218” value in assay [1] (Haemophilus influenzae 1218) worked out at 0.5 µg/mL (≈ 0.617 µM). Besides, in assay [2] (Streptococcus pneumoniae 1175), the “MIC S. pneumo. 1175” value is 4 µg/mL (≈ 4.94 µM). The “MIC S. pneumo. 1095” value in assay [3] (Streptococcus pneumoniae 1095) was less than 0.06 µg/mL. Besides, the “MIC S. pneumo. 1016” value in assay [4] (Streptococcus pneumoniae 1016) was less than 0.06 µg/mL. Further, in assay [5] (Streptococcus pyogenes 1079), the “MIC S. pyogenes 1079” value is 8 µg/mL (≈ 9.88 µM).

Take `CCC1OC(=O)C(C)C(=O)C(C)C(OC2OC(C)CC(N(C)C)C2O)C(C)(OC)CC(C)C(=O)C(C)C2N(C3CN(Cc4ccc(C#N)cc4)C3)C(=O)OC12C` (stereo not shown) [Example 1.14, 4-cyanobenzyl]: in assay [1] (Haemophilus influenzae 1218), the “MIC H. influenzae 1218” value amounted to 0.25 µg/mL (≈ 0.319 µM). Further, the “MIC S. pneumo. 1175” value in assay [2] (Streptococcus pneumoniae 1175) turned out to be 0.5 µg/mL (≈ 0.639 µM). Moreover, in assay [3] (Streptococcus pneumoniae 1095), the “MIC S. pneumo. 1095” value was 1 µg/mL (≈ 1.28 µM). Moreover, in assay [4] (Streptococcus pneumoniae 1016), the “MIC S. pneumo. 1016” value is less than 0.06 µg/mL. The “MIC S. pyogenes 1079” value in assay [5] (Streptococcus pyogenes 1079) is more than 64.00 µg/mL.

In the case of `CC[C@H]1OC(=O)[C@H](C)C(=O)[C@H](C)[C@@H](O[C@@H]2O[C@H](C)C[C@H](N(C)C)[C@H]2O)[C@](C)(OC)C[C@@H](C)C(=O)[C@H](C)[C@H]2N(CC3(O)CN(Cc4ccc(-c5ncccn5)cc4)C3)C(=O)O[C@]12C` [7.10], the “MIC H. influenzae 1218” value in assay [1] (setting [6]) came to 2 µg/mL (≈ 2.31 µM). In assay [2] (S. pneumoniae 1175 (mefA)), the “MIC S. pneumo. 1175” value was 1 µg/mL (≈ 1.15 µM). For the same compound, the “MIC S. pneumo. 1095” value in assay [3] (S. pneumoniae 1095 (ermB)) was determined as 64 µg/mL (≈ 73.9 µM). The “MIC S. pneumo. 1016” value in assay [4] (setting [7]) is less than 0.06 µg/mL. The “MIC S. pyogenes 1079” value in assay [5] (S. pyogenes 1079 (ermB)) was more than 64.00 µg/mL.

With `CCC1OC(=O)C(C)C(=O)C(C)C(OC2OC(C)CC(N(C)C)C2O)C(C)(OC)CC(C)C(=O)C(C)C2N(C3CN(S(=O)(=O)c4ccc(C)c5nccnc45)C3)C(=O)OC12C` (stereo not shown) [Example 3.114, 3-descladinosyl-11,12-dideoxy-6-O-methyl-3-oxo-12,11-(oxycarbonyl-(1-(8-methylquinoxaline-5-sulfonyl)-azetidin-3-yl)-imino)-erythromycin A], the “MIC H. influenzae 1218” value in assay [1] (Haemophilus influenzae 1218) is 0.25 µg/mL (≈ 0.286 µM). For the same compound, the “MIC S. pneumo. 1175” value in assay [2] (Streptococcus pneumoniae 1175) is less than 0.063 µg/mL. Besides, the “MIC S. pneumo. 1095” value in assay [3] (Streptococcus pneumoniae 1095) stood at 0.125 µg/mL (≈ 0.143 µM). Moreover, the “MIC S. pneumo. 1016” value in assay [4] (Streptococcus pneumoniae 1016) is less than 0.063 µg/mL. Also, the “MIC S. pyogenes 1079” value in assay [5] (Streptococcus pyogenes 1079) amounted to 1 µg/mL (≈ 1.14 µM).

With `CCC1OC(=O)C(C)C(=O)C(C)C(OC2OC(C)CC(N(C)C)C2O)C(C)(OC)CC(C)C(=O)C(C)C2N(C3CN(S(=O)(=O)c4cccnc4)C3)C(=O)OC12C` (stereo not shown) [Example 3.01, 3-descladinosyl-11,12-dideoxy-6-O-methyl-3-oxo-12,11-(oxycarbonyl-(1-(pyridine-3-sulfonyl)-azetidin-3-yl)-imino)-erythromycin A], the “MIC H. influenzae 1218” value in assay [1] (Haemophilus influenzae 1218) was 0.25 µg/mL (≈ 0.309 µM). In addition, the “MIC S. pneumo. 1175” value in assay [2] (Streptococcus pneumoniae 1175) is less than 0.06 µg/mL. Also, the “MIC S. pneumo. 1095” value in assay [3] (Streptococcus pneumoniae 1095) was less than 0.06 µg/mL. Also, in assay [4] (Streptococcus pneumoniae 1016), the “MIC S. pneumo. 1016” value was less than 0.06 µg/mL. The “MIC S. pyogenes 1079” value in assay [5] (Streptococcus pyogenes 1079) was 4 µg/mL (≈ 4.94 µM).
